# Literature values in article PMC5960647 (Experimental & Molecular Medicine, 2018).
# Where no end group is shown, it is not given here.
# How the values were obtained:
# [1] = system: CCKBR; conditions: cited from earlier work
# [2] = system: CCKBR; conditions: dorsal root ganglion neurons, CCKBR in the same neuron; cited from earlier work
Compound,effect on opioid-induced analgesia [1],effect on pain threshold of administration per se [1],effect on MOR-mediated inhibition of voltage-gated calcium current [2],"effect on electroacupuncture analgesia ([1]; caudate nucleus, through CCKBR)","effect on opioid analgesia ([1]; shown with L-365,260)"
"Cc1cccc(NC(=O)N[C@@H]2N=C(c3ccccc3)c3ccccc3N(C)C2=O)c1 [L-365,260]",potentiated opioid-induced analgesia,did not affect pain threshold,–,–,–
"cholecystokinin octapeptide (DYMGWMDF; ends and bridges not checked; UniProt P06307 96-103, looked up) [CCK-8]",–,–,antagonized,antagonism to electroacupuncture analgesia,inhibited opioid analgesia through CCKBR
